Experimental data from patent US7781407B2, “Calcium gluconolactate compositions and methods of making same” (priority 2002, dated 2010).

Test: Apparent and compacted bulk density (mass/volume, meshes 30, 80, 100)
Assay type: physicochemical
Text: 2.—Apparent and compacted bulk density; for the test calcium gluconolactonate, from formula III, was classified in 3 different types of mesh 30, 80, and 100 to determine its apparent density. The same procedure was used to determine compacted bulk density. The compound was classified in the same 30, 80, and 100 meshes, determining its density, in both cases, in grams per milliliter, as shown in table II below:
The average density corresponds to a 30 mesh, for the most common form of the product. A table is attached with different tests performed to determine the average apparent and compacted bulk density, resulting, in the first case, in a[n apparent] density of 0.690 and a compacted bulk density of 0.883, as shown in table III below: […]

[1] = 30 mesh, average of tests 1 to 31

Compound: CC(O)C(=O)[O-].O=C([O-])[C@H](O)[C@@H](O)[C@H](O)[C@H](O)CO.[Ca+2] [calcium gluconolactate]
- Apparent Density (30 mesh) (30 mesh, Mass/Volume): 0.690 g/mL
- Compacted Bulk Density (30 mesh) (30 mesh, Mass/Volume): 0.883 g/mL
- Apparent density, average [1]: 0.690
- Compacted Bulk density, average [1]: 0.883
- Apparent Density (80 mesh) (80 mesh, Mass/Volume): 0.655 g/mL
- Compacted Bulk Density (80 mesh) (80 mesh, Mass/Volume): 0.904 g/mL
- Apparent Density (100 mesh) (100 mesh, Mass/Volume): 0.609 g/mL
- Compacted Bulk Density (100 mesh) (100 mesh, Mass/Volume): 0.874 g/mL
